System: 695427-040-R-J1-PDC complex spheroid viability
Assay: Anticancer human tumor 695427-040-R-J1-PDC patient-derived colon adenocarcinoma cell line growth inhibition [POLQ]
Conditions: for IC50: curve of first compound; for viability, T/C: stronger effect = lower value
Outline: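 Complex spheroid viability model combining PDC tumour cells with endothelial (HUVEC) and MSC stromal cells. Novobiocin, ART-558 or RP6685 were tested singly and in combination with standard and investigational anticancer drugs. Each was titrated in half-log steps from near clinical Cmax, or from 10 microM where Cmax was unknown.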

[1] = second compound 0.0316 µM, first compound 0.0316 µM
[2] = second compound 0.0316 µM, first compound 0.1 µM
[3] = second compound 0.0316 µM, first compound 0.316 µM
[4] = second compound 0.0316 µM, first compound 1 µM
[5] = second compound 0.0316 µM, first compound 3.16 µM
[6] = second compound 0.0316 µM, first compound 10 µM
[7] = second compound 0.1 µM, first compound 0.0316 µM
[8] = second compound 0.1 µM, first compound 0.1 µM
[9] = second compound 0.1 µM, first compound 0.316 µM
[10] = second compound 0.1 µM, first compound 1 µM
[11] = second compound 0.1 µM, first compound 3.16 µM
[12] = second compound 0.1 µM, first compound 10 µM
[13] = second compound 0.316 µM, first compound 0.0316 µM
[14] = second compound 0.316 µM, first compound 0.1 µM
[15] = second compound 0.316 µM, first compound 0.316 µM
[16] = second compound 0.316 µM, first compound 1 µM
[17] = second compound 0.316 µM, first compound 3.16 µM
[18] = second compound 0.316 µM, first compound 10 µM
[19] = second compound 1 µM, first compound 0.0316 µM
[20] = second compound 1 µM, first compound 0.1 µM
[21] = second compound 1 µM, first compound 0.316 µM
[22] = second compound 1 µM, first compound 1 µM
[23] = second compound 1 µM, first compound 3.16 µM
[24] = second compound 1 µM, first compound 10 µM
[25] = second compound 3.16 µM, first compound 0.0316 µM
[26] = second compound 3.16 µM, first compound 0.1 µM
[27] = second compound 3.16 µM, first compound 0.316 µM
[28] = second compound 3.16 µM, first compound 1 µM
[29] = second compound 3.16 µM, first compound 3.16 µM
[30] = second compound 3.16 µM, first compound 10 µM
[31] = second compound 10 µM, first compound 0.0316 µM
[32] = second compound 10 µM, first compound 0.1 µM
[33] = second compound 10 µM, first compound 0.316 µM
[34] = second compound 10 µM, first compound 1 µM
[35] = second compound 10 µM, first compound 3.16 µM
[36] = second compound 10 µM, first compound 10 µM
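Also: spheroids exposed to compounds for seven days.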
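For viability, T/C in this document: 100% = DMSO vehicle control viability.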

`CCCS(=O)(=O)Nc1ccc(F)c(C(=O)c2c[nH]c3ncc(-c4ccc(Cl)cc4)cc23)c1F` + Cc1cccc(N(C)C(=O)C2C(O)CCN2c2nc(C)cc(C(F)(F)F)c2C#N)c1 was tested, and the IC50 (second compound 0.0316 µM) was > 10 µM, the IC50 (second compound 0.1 µM) was > 10 µM and the IC50 (second compound 0.316 µM) was > 10 µM. For the same compound, the IC50 (second compound 1 µM) was > 10 µM, the IC50 (second compound 3.16 µM) was > 10 µM and the IC50 (second compound 10 µM) was > 10 µM. The viability, T/C [1] was 113%, the viability, T/C [2] was 105% and the viability, T/C [3] was 102%. It also gave a viability, T/C [4] of 100%, a viability, T/C [5] of 116% and a viability, T/C [6] of 86.8%. It also gave a viability, T/C [7] of 129%, a viability, T/C [8] of 111% and a viability, T/C [9] of 104%. It also gave a viability, T/C [10] of 109%, a viability, T/C [11] of 111% and a viability, T/C [12] of 82.6%. For the same compound, the viability, T/C [13] was 101%, the viability, T/C [14] was 118% and the viability, T/C [15] was 96.3%. For the same compound, the viability, T/C [16] was 109%, the viability, T/C [17] was 123% and the viability, T/C [18] was 77.5%. For the same compound, the viability, T/C [19] was 112%, the viability, T/C [20] was 111% and the viability, T/C [21] was 102%. The viability, T/C [22] was 108%, the viability, T/C [23] was 127% and the viability, T/C [24] was 73.2%. It also gave a viability, T/C [25] of 100%, a viability, T/C [26] of 104% and a viability, T/C [27] of 103%. The viability, T/C [28] was 114%, the viability, T/C [29] was 112% and the viability, T/C [30] was 104%. The viability, T/C [31] was 101%, the viability, T/C [32] was 100% and the viability, T/C [33] was 92%. For the same compound, the viability, T/C [34] was 98.8%, the viability, T/C [35] was 108% and the viability, T/C [36] was 77.9%.

`CCc1cc2c(N3CCc4c(cc(Cn5ccnc5)cc4-c4cn(C)nc4C(F)(F)F)C3=O)ccnc2c(OC)n1` + Cc1cccc(N(C)C(=O)C2C(O)CCN2c2nc(C)cc(C(F)(F)F)c2C#N)c1 was tested, and the IC50 (second compound 0.0316 µM) was > 10 µM, the IC50 (second compound 0.1 µM) was > 10 µM and the IC50 (second compound 0.316 µM) was > 10 µM. The IC50 (second compound 1 µM) was > 10 µM, the IC50 (second compound 3.16 µM) was > 10 µM and the IC50 (second compound 10 µM) was > 10 µM. For the same compound, the viability, T/C [1] was 97%, the viability, T/C [2] was 99.7% and the viability, T/C [3] was 98.2%. It also gave a viability, T/C [4] of 104%, a viability, T/C [5] of 105% and a viability, T/C [6] of 92.4%. For the same compound, the viability, T/C [7] was 110%, the viability, T/C [8] was 107% and the viability, T/C [9] was 109%. It also gave a viability, T/C [10] of 103%, a viability, T/C [11] of 114% and a viability, T/C [12] of 89.3%. The viability, T/C [13] was 105%, the viability, T/C [14] was 109% and the viability, T/C [15] was 92.8%. The viability, T/C [16] was 113%, the viability, T/C [17] was 109% and the viability, T/C [18] was 81.3%. The viability, T/C [19] was 103%, the viability, T/C [20] was 108% and the viability, T/C [21] was 105%. It also gave a viability, T/C [22] of 103%, a viability, T/C [23] of 102% and a viability, T/C [24] of 82.7%. For the same compound, the viability, T/C [25] was 101%, the viability, T/C [26] was 94.9% and the viability, T/C [27] was 95.2%. The viability, T/C [28] was 103%, the viability, T/C [29] was 99.8% and the viability, T/C [30] was 85.5%. It also gave a viability, T/C [31] of 98%, a viability, T/C [32] of 86.4% and a viability, T/C [33] of 93.6%. The viability, T/C [34] was 97.8%, the viability, T/C [35] was 103% and the viability, T/C [36] was 83.6%.

With `COc1ccc([C@@H](O)c2cc(-c3ncnc4cc(N5CCOCC5)ccc34)c(F)cc2Cl)nn1` + Cc1cccc(N(C)C(=O)C2C(O)CCN2c2nc(C)cc(C(F)(F)F)c2C#N)c1 the IC50 (second compound 0.0316 µM) was > 10 µM, the IC50 (second compound 0.1 µM) was > 10 µM and the IC50 (second compound 0.316 µM) was > 10 µM. For the same compound, the IC50 (second compound 1 µM) was > 10 µM, the IC50 (second compound 3.16 µM) was 9.23 µM and the IC50 (second compound 10 µM) was > 10 µM. It also gave a viability, T/C [1] of 98.6%, a viability, T/C [2] of 94.8% and a viability, T/C [3] of 101%. It also gave a viability, T/C [4] of 99%, a viability, T/C [5] of 77.5% and a viability, T/C [6] of 57.6%. For the same compound, the viability, T/C [7] was 103%, the viability, T/C [8] was 103% and the viability, T/C [9] was 97.4%. The viability, T/C [10] was 91.8%, the viability, T/C [11] was 85.2% and the viability, T/C [12] was 57.3%. It also gave a viability, T/C [13] of 109%, a viability, T/C [14] of 104% and a viability, T/C [15] of 103%. For the same compound, the viability, T/C [16] was 92.7%, the viability, T/C [17] was 78.5% and the viability, T/C [18] was 53.6%. The viability, T/C [19] was 100%, the viability, T/C [20] was 93.8% and the viability, T/C [21] was 94%. For the same compound, the viability, T/C [22] was 92.1%, the viability, T/C [23] was 84.1% and the viability, T/C [24] was 52.3%. It also gave a viability, T/C [25] of 92%, a viability, T/C [26] of 101% and a viability, T/C [27] of 95.9%. It also gave a viability, T/C [28] of 87.4%, a viability, T/C [29] of 74.5% and a viability, T/C [30] of 48.1%. The viability, T/C [31] was 97.2%, the viability, T/C [32] was 79.7% and the viability, T/C [33] was 83.8%. For the same compound, the viability, T/C [34] was 78.9%, the viability, T/C [35] was 71.6% and the viability, T/C [36] was 51%.

For `COc1cccc(OCCCN)c1-c1cc(Nc2cnc(C#N)cn2)n[nH]1` + Cc1cccc(N(C)C(=O)C2C(O)CCN2c2nc(C)cc(C(F)(F)F)c2C#N)c1, the IC50 (second compound 0.0316 µM) was > 1 µM, the IC50 (second compound 0.1 µM) was > 1 µM and the IC50 (second compound 0.316 µM) was > 1 µM. For the same compound, the IC50 (second compound 1 µM) was > 1 µM, the IC50 (second compound 3.16 µM) was > 1 µM and the IC50 (second compound 10 µM) was 0.295 µM. For the same compound, the viability, T/C (second compound 0.0316 µM, first compound 0.00316 µM) was 95.4%, the viability, T/C (second compound 0.0316 µM, first compound 0.01 µM) was 107% and the viability, T/C [1] was 96%. The viability, T/C [2] was 82.5%, the viability, T/C [3] was 70.5% and the viability, T/C [4] was 51%. The viability, T/C (second compound 0.1 µM, first compound 0.00316 µM) was 109%, the viability, T/C (second compound 0.1 µM, first compound 0.01 µM) was 95.7% and the viability, T/C [7] was 88.3%. The viability, T/C [8] was 80.1%, the viability, T/C [9] was 71.3% and the viability, T/C [10] was 48.3%. For the same compound, the viability, T/C (second compound 0.316 µM, first compound 0.00316 µM) was 105%, the viability, T/C (second compound 0.316 µM, first compound 0.01 µM) was 97.5% and the viability, T/C [13] was 87%. It also gave a viability, T/C [14] of 77%, a viability, T/C [15] of 67.8% and a viability, T/C [16] of 52.5%. The viability, T/C (second compound 1 µM, first compound 0.00316 µM) was 105%, the viability, T/C (second compound 1 µM, first compound 0.01 µM) was 95.3% and the viability, T/C [19] was 91.6%. It also gave a viability, T/C [20] of 75%, a viability, T/C [21] of 70.4% and a viability, T/C [22] of 51.8%. For the same compound, the viability, T/C (second compound 3.16 µM, first compound 0.00316 µM) was 100%, the viability, T/C (second compound 3.16 µM, first compound 0.01 µM) was 87.8% and the viability, T/C [25] was 86.5%. It also gave a viability, T/C [26] of 82%, a viability, T/C [27] of 69.7% and a viability, T/C [28] of 55.3%. For the same compound, the viability, T/C (second compound 10 µM, first compound 0.00316 µM) was 85.9%, the viability, T/C (second compound 10 µM, first compound 0.01 µM) was 89.1% and the viability, T/C [31] was 75.8%. It also gave a viability, T/C [32] of 63.7%, a viability, T/C [33] of 48.8% and a viability, T/C [34] of 43.5%.
